From PubChem BioAssay (NCI) come the findings set out here.

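Grown in 96-well plates, cells were treated for 48 hours with each compound at five concentrations. Insufficient inhibition: endpoint recorded as highest concentration tested. Abbreviation: GI50, concentration required for 50% inhibition of growth. TGI: total growth inhibition.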

Some test systems named below: OVCAR-8 ovarian; SK-MEL-2 melanoma; LOX IMVI melanoma; HCT-116 colon; SF-268 CNS; BT-549 breast; EKVX NSCLC; K-562 leukemia; SNB-75 CNS; 786-0 renal.
What all share (assay): NCI-60 cell line screen, 48 h

Take `C(=C\c1ccncc1)/c1ccncc1`: the GI50 in the assay with OVCAR-8 ovarian, in the assay on SK-MEL-2 melanoma, in the assay on LOX IMVI melanoma, in the assay on HCT-116 colon, with SF-268 CNS and with BT-549 breast was greater than 100 µM each time. Further, the GI50 in the assay on EKVX NSCLC, with K-562 leukemia, in the assay on SNB-75 CNS and in the assay with 786-0 renal was greater than 100 µM throughout. For the same compound, the TGI in the assay with OVCAR-8 ovarian, in the assay on SK-MEL-2 melanoma, in the assay on LOX IMVI melanoma, with HCT-116 colon, with SF-268 CNS and with BT-549 breast was greater than 100 µM in each case. Also, the TGI in the assay with EKVX NSCLC, in the assay with K-562 leukemia, with SNB-75 CNS and with 786-0 renal was greater than 100 µM in each case.

For `Cc1cc2c3c([n+](C)c4ccc(F)cc4c3c1)-c1cc(F)ccc1N2C`, the GI50 was 15.2 µM with OVCAR-8 ovarian; 10.9 µM in the assay with SK-MEL-2 melanoma; 20.7 µM in the assay on LOX IMVI melanoma; 19.9 µM in the assay on HCT-116 colon; 2.42 µM in the assay with SF-268 CNS; 4.63 µM in the assay on BT-549 breast. Besides, the GI50 in the assay with EKVX NSCLC is 62.4 µM; in the assay with K-562 leukemia, 4.74 µM; in the assay on SNB-75 CNS, 11 µM; in the assay with 786-0 renal, 6.24 µM. Besides, the TGI was greater than 100 µM in the assay with OVCAR-8 ovarian; 28.6 µM in the assay with SK-MEL-2 melanoma; 68.6 µM in the assay on LOX IMVI melanoma; greater than 100 µM in the assay with HCT-116 colon; 14.8 µM in the assay with SF-268 CNS; 33.9 µM in the assay with BT-549 breast. Moreover, the TGI in the assay on EKVX NSCLC was greater than 100 µM; with K-562 leukemia, greater than 100 µM; in the assay on SNB-75 CNS, 41.5 µM; in the assay on 786-0 renal, greater than 100 µM.

For `c1cc(C2CCCCC2)ccc1-c1cnc2nonc2n1`, the GI50 in the assay with OVCAR-8 ovarian is 1.38 µM; with SK-MEL-2 melanoma it was 1.31 µM; in the assay on LOX IMVI melanoma, 0.527 µM; in the assay on HCT-116 colon it was 0.468 µM; in the assay on SF-268 CNS it was 2.13 µM; in the assay on BT-549 breast it was 1.29 µM. Also, the GI50 in the assay on EKVX NSCLC was 1.52 µM; with K-562 leukemia, 0.4 µM; in the assay with SNB-75 CNS, 0.528 µM; in the assay with 786-0 renal, 0.506 µM. Further, the TGI in the assay on OVCAR-8 ovarian is greater than 19.8 µM; with SK-MEL-2 melanoma it was 3.62 µM; in the assay on LOX IMVI melanoma it was 1.74 µM; in the assay on HCT-116 colon, 1.93 µM; in the assay on SF-268 CNS, 9.29 µM; with BT-549 breast, 3.25 µM. The TGI in the assay with EKVX NSCLC came out at 3.65 µM; in the assay on K-562 leukemia, 18.8 µM; with SNB-75 CNS, 1.71 µM; in the assay with 786-0 renal, 1.9 µM.

`C=C1C(=O)O[C@H]2[C@H]1CC/C(COC(=O)CCCCCCCC(=O)OC/C1=C/CC[C@@]3(C)O[C@H]3[C@H]3OC(=O)C(=C)[C@@H]3CC1)=C\CC[C@@]1(C)O[C@@H]21`: the GI50 was 2.75 µM in the assay on OVCAR-8 ovarian; 11.3 µM in the assay on SK-MEL-2 melanoma; 1.48 µM in the assay with LOX IMVI melanoma; 2.3 µM in the assay with SF-268 CNS; 1.59 µM in the assay with BT-549 breast; 2.55 µM in the assay with EKVX NSCLC. Further, the GI50 with K-562 leukemia was 0.927 µM; with SNB-75 CNS, 12.3 µM; in the assay on 786-0 renal, 1.68 µM. In addition, the TGI was determined as 8.44 µM with OVCAR-8 ovarian; 31.5 µM with SK-MEL-2 melanoma; 2.95 µM with LOX IMVI melanoma; 7.41 µM in the assay on SF-268 CNS; 3.45 µM in the assay with BT-549 breast; 8.87 µM with EKVX NSCLC. Further, the TGI was determined as 10.8 µM with K-562 leukemia, 35.9 µM in the assay with SNB-75 CNS and 3.63 µM with 786-0 renal.

Regarding `C#CCOc1cccc(Nc2ncnc3cc(NC(=O)C=C)ccc23)c1`, the GI50 in the assay with OVCAR-8 ovarian is 7.72 µM; with SK-MEL-2 melanoma it was 20.9 µM; in the assay with LOX IMVI melanoma, 3.73 µM; in the assay on HCT-116 colon, 4.02 µM; with SF-268 CNS, 12.6 µM; in the assay with BT-549 breast, 5.3 µM. The figures for the GI50 in the assay with EKVX NSCLC, with K-562 leukemia and in the assay on 786-0 renal were 14.8 µM, 2.79 µM and 5.97 µM, respectively. The TGI was 57.8 µM with OVCAR-8 ovarian; greater than 100 µM in the assay with SK-MEL-2 melanoma; 17.3 µM in the assay with LOX IMVI melanoma; greater than 100 µM in the assay with HCT-116 colon; greater than 100 µM in the assay on SF-268 CNS; greater than 100 µM in the assay with BT-549 breast. For the same compound, the TGI in the assay on EKVX NSCLC was greater than 100 µM; with K-562 leukemia it was greater than 100 µM; in the assay on 786-0 renal, 48.1 µM.

Turning to `Cc1cc(-c2nc3n(c2/C=N/N=C(N)N)CCS3)c(C)s1`, the GI50 with OVCAR-8 ovarian is 32.6 µM; in the assay on LOX IMVI melanoma it was 15 µM; in the assay with HCT-116 colon it was 15.4 µM; in the assay on SF-268 CNS, 19.1 µM; in the assay on BT-549 breast it was 23.1 µM; in the assay with EKVX NSCLC, 15.2 µM. Also, the GI50 was 19.1 µM in the assay on K-562 leukemia, 29.9 µM in the assay on SNB-75 CNS and 17.1 µM with 786-0 renal. The TGI turned out to be 63.4 µM in the assay with OVCAR-8 ovarian; 29.1 µM in the assay with LOX IMVI melanoma; 28.7 µM with HCT-116 colon; 35.5 µM in the assay with SF-268 CNS; 42.5 µM in the assay on BT-549 breast; 34.6 µM with EKVX NSCLC. The TGI in the assay with K-562 leukemia came out at 42.4 µM; in the assay with SNB-75 CNS, 48.8 µM; with 786-0 renal, 30.8 µM.

With `CC(C)(O)CCc1cccc(C(=O)c2cnn(-c3ccc(F)cc3)c2N)c1`, the GI50 in the assay with OVCAR-8 ovarian, in the assay with SK-MEL-2 melanoma, in the assay on LOX IMVI melanoma, with HCT-116 colon, in the assay on SF-268 CNS and with BT-549 breast was greater than 25 µM in each case. Also, the GI50 with K-562 leukemia, in the assay with SNB-75 CNS and in the assay on 786-0 renal was greater than 25 µM each time. Besides, the TGI in the assay on OVCAR-8 ovarian, with SK-MEL-2 melanoma, in the assay with LOX IMVI melanoma, with HCT-116 colon, in the assay on SF-268 CNS and in the assay with BT-549 breast was greater than 25 µM throughout. The TGI in the assay on K-562 leukemia, with SNB-75 CNS and with 786-0 renal was greater than 25 µM each time.
